{
  "source": "patent US10626100B2",
  "about": "“Selective HDAC6 inhibitors” (The Trustees of Columbia University in the City of New York, priority 2013, dated 2020)",
  "key": {"[1]": {"tested_on": "HFS (human foreskin fibroblast) cells", "assay": "Cell growth and viability of HFS normal cells", "type": "cell-based", "experimental": "FIG. 3. Cell growth of HFS (normal) and LNCaP (transformed) cells treated with compound 8 over 72 h.\nFIG. 4. Cell viability of HFS (normal) and LNCaP (transformed) cells treated with compound 8 over 72 h.\n(§1) Recombinant HDAC1 and HDAC6 are used to evaluate the selective inhibitory potency of each compound. Cell based assays: Normal cells (Human Foreskin Fibroblast cells), LNCaP (human prostate cancer cells), MCF-7 (human breast cancer cells, A549 (human adenocarcinoma of lung cells) and ARP-1 (human multiple myeloma cells) are used in these assays. Cells were cultured for up to 72 hr without and with the potential HDAC6-selective inhibitor. SAHA was used as a control. Cell number and cell viability were determined by enumeration. Proteins were extracted from cells and assayed for accumulation of acetylated tubulin and acetylated histones. All methods are described in Namdar et al., PNAS, 2010, 107:20003-8. In vivo animal studies: Potential HDAC6 inhibitor compounds are further assayed by administration to mice for up to 5 days with daily injections. Animals are sacrificed and tissues are analyzed for accumulation of acetylated tubulin and acetylated histones.\nThe effect of compound 8 on the cell growth and viability of normal (HFS, human foreskin fibroblast) and transformed (LNCaP, human prostate adenocarcinoma) cells cultured with 8, 16, 32 or 64 μM HPB for up to 72 h was evaluated."}, "HDAC1": {"biological_target": "HDAC1 (Homo sapiens, UniProt Q13547)", "sequence (Q13547 whole entry)": "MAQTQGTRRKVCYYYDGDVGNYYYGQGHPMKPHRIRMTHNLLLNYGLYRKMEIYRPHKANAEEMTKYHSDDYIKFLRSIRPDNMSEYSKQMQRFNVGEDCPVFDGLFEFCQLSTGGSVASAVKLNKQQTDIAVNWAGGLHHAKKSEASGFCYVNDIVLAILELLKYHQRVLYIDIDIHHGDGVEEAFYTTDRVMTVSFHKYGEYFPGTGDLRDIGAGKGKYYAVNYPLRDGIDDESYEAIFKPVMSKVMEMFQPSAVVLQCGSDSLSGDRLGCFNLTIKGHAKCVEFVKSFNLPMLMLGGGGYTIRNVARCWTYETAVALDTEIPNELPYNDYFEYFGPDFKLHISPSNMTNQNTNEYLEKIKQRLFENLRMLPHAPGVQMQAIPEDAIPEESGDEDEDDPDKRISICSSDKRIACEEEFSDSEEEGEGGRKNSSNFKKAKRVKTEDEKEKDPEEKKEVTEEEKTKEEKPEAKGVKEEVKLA", "assay": "Inhibition of recombinant HDAC1", "type": "biochemical", "conditions": "read-out: IC50 (nM) HCAC1"}, "[2]": {"tested_on": "acetylated alpha-tubulin and acetylated histone H3 in LNCaP (human prostate cancer cells)", "assay": "Accumulation of acetylated proteins in LNCaP cells (western blot)", "type": "cell-based", "experimental": "FIG. 2. Blot showing accumulation of acetylated alpha-tubulin and acetylated histone H3 in LNCaP (human prostate cancer cells) cultured with compounds 8 or 11. GADPH used as loading control.\n(§2) FIG. 5. Western blots of acetylated alpha-tubulin (Acet-Tub) and acetylated histone H3 (Acet-H3) in HFS (normal) and LNCaP (transformed) cells treated with compound 8 at 8, 16, 32, and 64 μM for 24 h. Western blots of GAPDH and total histone H3 (Total-H3) are loading controls.\nas §1"}, "[3]": {"tested_on": "acetylated alpha-tubulin and acetylated histone H3 in HFS (human foreskin fibroblast) cells", "assay": "Accumulation of acetylated proteins in HFS normal cells (western blot)", "type": "cell-based", "experimental": "as §2, §1"}, "[4]": {"conditions": "LNCaP cells, 8 μM to 64 μM, 24 h, FIG. 5"}, "[5]": {"conditions": "transformed cells, concentrations as high as 16 μM"}, "[6]": {"conditions": "HFS cells, 8 μM to 64 μM, 24 h, FIG. 5"}, "[7]": {"conditions": "normal cells, concentrations as high as 16 μM"}},
  "note": "Entries after “also recorded” stand apart in the source; their conditions may differ.",
  "data": [
    {"compound": "O=C(NO)c1ccc(CN(CCO)C(=O)Cc2ccccc2)cc1", "note": "[Compound 8, N-hydroxy-4-((N-(2-hydroxyethyl)-2-phenylacetamido)methyl) benzamide]", "values": [
      {"measurement": "cell growth", "setting": "[1]; HFS, 8, 16, 32 or 64 μM, up to 72 h, FIG. 3", "value": "inhibited cell growth of normal and transformed cells in a concentration dependent manner"},
      {"measurement": "cell death / cell viability", "setting": "[1]; HFS, 8, 16, 32 or 64 μM, up to 72 h, FIG. 4", "value": "did not induce cell death of normal or transformed cells"},
      {"measurement": "normal cell death", "setting": "[1]; concentrations ≤16 μM", "value": "do not induce normal cell death"},
      {"measurement": "IC50", "setting": "HDAC1", "value": 1130, "unit": "nM"},
      {"measurement": "accumulation of acetylated alpha-tubulin", "setting": "[2]; [4]", "value": "caused accumulation of acetylated alpha-tubulin"},
      {"measurement": "accumulation of acetylated histones", "setting": "[2]; [4]", "value": "not of acetylated histones"},
      {"measurement": "accumulation of acetylated histones (H3)", "setting": "[2]; LNCaP cells, FIG. 2", "value": "did not cause accumulation of actylated histones; also recorded: without induction of H3 acetylation"},
      {"measurement": "accumulation of acetylated α-tubulin", "setting": "[2]; LNCaP cells, FIG. 2", "value": "caused the accumulation of acetylated α-tubulin; also recorded: significant levels of tubulin acylation were present"},
      {"measurement": "accumulation of acetylated alpha-tubulin", "setting": "[2]; [5]", "value": "selectively induced accumulation of acetylated alpha-tubulin and acetylated PRX"},
      {"measurement": "accumulation of acetylated histones", "setting": "[2]; [5]", "value": "not of acetylated histones"},
      {"measurement": "accumulation of acetylated alpha-tubulin", "setting": "[3]; [6]", "value": "caused accumulation of acetylated alpha-tubulin"},
      {"measurement": "accumulation of acetylated histones", "setting": "[3]; [6]", "value": "not of acetylated histones"},
      {"measurement": "accumulation of acetylated PRX", "setting": "[3]; [7]", "value": "selectively induced accumulation of acetylated alpha-tubulin and acetylated PRX"},
      {"measurement": "accumulation of acetylated alpha-tubulin", "setting": "[3]; [7]", "value": "selectively induced accumulation of acetylated alpha-tubulin and acetylated PRX"},
      {"measurement": "accumulation of acetylated histones", "setting": "[3]; [7]", "value": "not of acetylated histones"}
    ]}
  ]
}
